# Measured values reported in patent publication EP4700025A1, “AMIDE COMPOUND, PHARMACEUTICAL COMPOSITION COMPRISING SAME, AND USE THEREOF” (Suzhou Genhouse Bio Co., Ltd., priority 2023, dated 2024).
# Where two headings read alike, the source gives them in different places.
# Tests used:
# [1] = target: PRMT5 (Homo sapiens, UniProt O14744); test: Inhibitory activity against enzymatic activity of PRMT5 (fluorescence polarization); type: biochemical; conditions: PRMT5 25 nM, SAM 1 µM, polypeptide 1 µM, MTA 2 µM; 37 °C 2 hours
# Sequence of PRMT5 (O14744 whole entry): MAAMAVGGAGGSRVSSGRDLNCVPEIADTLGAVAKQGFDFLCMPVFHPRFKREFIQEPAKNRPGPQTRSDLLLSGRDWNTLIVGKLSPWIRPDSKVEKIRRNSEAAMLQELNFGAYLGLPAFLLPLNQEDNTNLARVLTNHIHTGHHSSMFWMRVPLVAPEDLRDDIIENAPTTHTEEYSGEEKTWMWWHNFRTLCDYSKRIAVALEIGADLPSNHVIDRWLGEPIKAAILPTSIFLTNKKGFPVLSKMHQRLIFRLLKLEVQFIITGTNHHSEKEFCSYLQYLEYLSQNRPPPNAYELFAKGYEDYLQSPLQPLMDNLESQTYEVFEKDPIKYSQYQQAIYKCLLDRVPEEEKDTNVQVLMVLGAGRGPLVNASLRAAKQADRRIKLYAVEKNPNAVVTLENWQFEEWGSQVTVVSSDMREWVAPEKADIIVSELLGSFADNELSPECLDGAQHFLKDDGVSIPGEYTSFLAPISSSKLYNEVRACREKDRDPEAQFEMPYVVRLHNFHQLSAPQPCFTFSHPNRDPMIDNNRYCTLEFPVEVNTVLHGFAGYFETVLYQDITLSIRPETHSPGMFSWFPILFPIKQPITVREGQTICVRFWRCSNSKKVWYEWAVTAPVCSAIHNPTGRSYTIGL
# Sequence of PRMT5 (Q9BQA1 whole entry partner): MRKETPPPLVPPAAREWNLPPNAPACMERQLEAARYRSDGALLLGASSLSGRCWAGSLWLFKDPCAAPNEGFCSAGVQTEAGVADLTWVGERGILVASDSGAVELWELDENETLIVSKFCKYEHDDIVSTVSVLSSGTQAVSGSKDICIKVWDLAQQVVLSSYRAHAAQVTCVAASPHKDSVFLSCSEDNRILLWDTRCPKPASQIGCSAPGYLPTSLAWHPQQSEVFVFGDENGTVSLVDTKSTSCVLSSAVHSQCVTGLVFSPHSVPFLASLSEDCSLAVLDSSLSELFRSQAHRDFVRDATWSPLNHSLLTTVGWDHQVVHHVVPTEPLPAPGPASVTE
# Description: The compounds were prepared into 10 mM stock solutions using DMSO, and then 9 concentration gradients (with an initial concentration of 10 µM followed by 1:5 dilution) were prepared using a buffer (50 mM Tris-HCl pH 8.5, 5 mM MgCl2, 4 mM DTT, 0.01% Triton X-100, 0.1 M NaCl, 0.5% DMSO), and each well received 5 µL of the diluted compound solutions. SAM, a polypeptide, and MTA were prepared using a buffer to final concentrations of 1 µM, 1 µM, and 2 µM, respectively, and were added to each well in a total of 5 µL. Meanwhile, an MTA-free group was set as a control. […] Subsequently, a mixture of 2.5 µL of stop buffer A, 2.5 µL of an 8× MT assay mixture (final concentration: 1×), and 24 µg/mL AMP2/GMP2 antibodies (final concentration: 3 µg/mL) was added. The resulting mixture was incubated at room temperature for 1.5 hours, and fluorescence polarization (FP) was measured (Ex 633, Em 647). Meanwhile, negative control wells without protein (Blank) and positive control wells without compound (DMSO) were set. Each experiment was independently repeated three times.
# Data processing: The numerical values of each group were recorded for statistical analysis, and the inhibition rate was calculated according to the following formula: inhibition percentage of compound wells (% inh) = [1 - (ave Blank - Cpd well)/(ave Blank - ave DMSO control)] × 100. Note: ave represents the average value, and Cpd represents the numerical value of the wells containing the compound. A sigmoidal dose-inhibition rate curve was plotted and fitted using a nonlinear regression model in the GraphPad Prism 7.0 software, and the IC50 value was calculated. Table 1. Inhibitory activity of compounds against enzymatic activity of PRMT5
# [2] = test system: HCT-116-MTAP^-/- cells; test: Pharmacodynamic study, HCT-116-MTAP^-/- subcutaneous xenograft; type: in vivo, mouse; conditions: HCT-116-MTAP^-/- xenograft
# Description: Human colon cancer HCT-116-MTAP^-1- cells were cultured in monolayer in vitro using the McCoy 5A culture medium (HyClone) containing 10% fetal bovine serum (BI) and 1% penicillin and streptomycin (Beyotime) in an incubator at 37 °C with 5% CO2. The cells were digested with trypsin 2 to 3 times weekly for passaging. When the saturation degree of the cells was 80% to 90%, the cells were collected, counted, and inoculated. 5 × 10^6 (0.1 mL) HCT-116-MTAP^-/- cells were subcutaneously inoculated on the right back of each mouse. On about day 15 after inoculation of the cells, the mean tumor volume reached 172 mm^3. The mice were randomly grouped for administration (the animals were divided into an administration group and a control group, with 6 animals in each group). The day of grouping was designated as d0, and intragastric administration was started on d1. The administration was performed once daily at an administration volume of 10 mL/kg. Vehicle control was administered to the control group. The tumor volume was measured 2 to 3 times weekly, and meanwhile, the mice were weighed and the data were recorded; daily observations were made to record the body surface signs of the mice. After the experiment was completed, the tumors were collected, weighed, and photographed for recording.
# Calculation formula for tumor volume: Tumor volume (mm^3) = 1/2 × (a×b^2) [formula] (note: a represents long diameter and b represents short diameter) [formula]
# [3] = target: T1, CYP450 1A2 (Homo sapiens, UniProt P05177); test: Inhibition of human liver microsome CYP450 enzyme 1A2; type: in vitro ADME
# T1 construct: from tissue; host or cells: human liver microsomes
# T1 sequence (P05177 1-516): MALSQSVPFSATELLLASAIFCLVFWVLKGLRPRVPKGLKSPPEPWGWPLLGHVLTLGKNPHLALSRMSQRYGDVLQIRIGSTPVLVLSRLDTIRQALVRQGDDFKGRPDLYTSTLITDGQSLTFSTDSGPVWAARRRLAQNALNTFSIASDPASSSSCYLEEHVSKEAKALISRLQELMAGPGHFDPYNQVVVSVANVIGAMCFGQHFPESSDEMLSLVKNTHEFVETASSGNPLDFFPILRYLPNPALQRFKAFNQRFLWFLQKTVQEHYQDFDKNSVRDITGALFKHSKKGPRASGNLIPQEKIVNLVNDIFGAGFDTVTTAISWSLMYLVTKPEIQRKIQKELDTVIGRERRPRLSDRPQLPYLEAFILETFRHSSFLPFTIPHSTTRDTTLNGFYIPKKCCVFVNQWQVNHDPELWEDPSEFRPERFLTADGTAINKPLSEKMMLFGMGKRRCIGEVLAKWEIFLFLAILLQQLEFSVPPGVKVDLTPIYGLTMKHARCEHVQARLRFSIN
# Description: (§1) 100 mM K-Buffer: 9.5 mL of stock solution A was mixed with 40.5 mL of stock solution B, the total volume was adjusted to 500 mL with ultrapure water, and the buffer was titrated to pH 7.4 with KOH or H3PO4. • Starting material A (1 M potassium dihydrogen phosphate): 136.5 g of potassium dihydrogen phosphate in 1 L of water; • Stock solution B ([…]): 174.2 g of potassium dihydrogen phosphate in 1 L of water.
# (§2) The test substance powder was prepared into a stock solution at a certain concentration with DMSO or another organic solvent, which was then further diluted with a suitable organic solvent.
# (§3) The liver microsomal in vitro incubation system for the CYP450 enzyme metabolism phenotype study was a biochemical reaction of the prepared liver microsomes supplemented with a redox coenzyme and an enzyme-specific selective inhibitor under simulated physiological temperature and physiological environment conditions.
# (§4) The concentration of the parent drug or a metabolite thereof in the incubation solution was determined by LC-MS/MS. and the IC50 value was calculated.
# [4] = target: T2, CYP450 2C9 (Homo sapiens, UniProt P11712); test: Inhibition of human liver microsome CYP450 enzyme 2C9; type: in vitro ADME
# T2 construct: from tissue; host or cells: human liver microsomes
# T2 sequence (P11712 whole entry): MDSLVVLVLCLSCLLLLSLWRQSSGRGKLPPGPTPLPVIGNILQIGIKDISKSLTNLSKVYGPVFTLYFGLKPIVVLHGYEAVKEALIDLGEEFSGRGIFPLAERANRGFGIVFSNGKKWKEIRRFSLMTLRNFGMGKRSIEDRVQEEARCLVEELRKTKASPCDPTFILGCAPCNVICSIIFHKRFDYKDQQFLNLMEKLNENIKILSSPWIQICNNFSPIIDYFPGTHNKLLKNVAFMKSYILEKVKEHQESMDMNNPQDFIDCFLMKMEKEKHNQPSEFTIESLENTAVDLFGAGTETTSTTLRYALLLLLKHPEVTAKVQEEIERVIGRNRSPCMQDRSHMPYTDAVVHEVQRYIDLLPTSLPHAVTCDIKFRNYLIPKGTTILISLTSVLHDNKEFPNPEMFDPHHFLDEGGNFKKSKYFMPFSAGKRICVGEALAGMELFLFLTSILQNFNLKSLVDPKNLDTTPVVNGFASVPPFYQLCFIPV
# Description: as §1, §2, §3, §4
# [5] = target: T3, CYP450 2D6 (Homo sapiens, UniProt P10635); test: Inhibition of human liver microsome CYP450 enzyme 2D6; type: in vitro ADME
# T3 construct: from tissue; host or cells: human liver microsomes
# T3 sequence (P10635 whole entry): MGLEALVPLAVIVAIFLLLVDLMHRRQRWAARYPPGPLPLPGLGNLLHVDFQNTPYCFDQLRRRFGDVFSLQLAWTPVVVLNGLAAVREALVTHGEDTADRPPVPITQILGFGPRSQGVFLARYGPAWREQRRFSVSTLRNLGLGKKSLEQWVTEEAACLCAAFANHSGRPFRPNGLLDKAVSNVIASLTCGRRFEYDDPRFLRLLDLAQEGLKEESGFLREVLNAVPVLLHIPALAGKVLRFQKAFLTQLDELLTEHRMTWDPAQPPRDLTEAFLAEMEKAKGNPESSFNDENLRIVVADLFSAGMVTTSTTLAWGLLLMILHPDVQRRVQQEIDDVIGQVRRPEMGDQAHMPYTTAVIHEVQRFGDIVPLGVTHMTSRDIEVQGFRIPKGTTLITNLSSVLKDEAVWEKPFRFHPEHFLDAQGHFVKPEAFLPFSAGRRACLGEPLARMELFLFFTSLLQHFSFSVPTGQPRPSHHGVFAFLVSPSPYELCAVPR
# Description: as §1, §2, §3, §4
# [6] = target: T4, CYP450 3A4 (Homo sapiens, UniProt P08684); test: Inhibition of human liver microsome CYP450 enzyme 3A4; type: in vitro ADME
# T4 construct: from tissue; host or cells: human liver microsomes
# T4 sequence (P08684 whole entry): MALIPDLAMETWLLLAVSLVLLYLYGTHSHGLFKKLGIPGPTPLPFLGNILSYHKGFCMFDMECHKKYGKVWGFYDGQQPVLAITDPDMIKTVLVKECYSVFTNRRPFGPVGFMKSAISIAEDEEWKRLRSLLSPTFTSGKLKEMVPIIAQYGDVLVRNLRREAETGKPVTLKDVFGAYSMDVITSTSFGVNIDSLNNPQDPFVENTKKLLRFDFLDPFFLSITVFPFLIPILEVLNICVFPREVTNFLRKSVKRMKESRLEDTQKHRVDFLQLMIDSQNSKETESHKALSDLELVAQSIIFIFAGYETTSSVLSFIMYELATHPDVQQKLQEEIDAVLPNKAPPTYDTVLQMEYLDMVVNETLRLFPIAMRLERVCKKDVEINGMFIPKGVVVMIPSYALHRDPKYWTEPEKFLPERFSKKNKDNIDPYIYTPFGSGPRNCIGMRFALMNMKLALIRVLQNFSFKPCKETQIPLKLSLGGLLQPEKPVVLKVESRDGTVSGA
# Description: as §1, §2, §3, §4
Compound,IC50 [1] [µM],Day 28 TGI ([2]; 10 mpk PO QD) [%],Day 28 TGI ([2]; 30 mpk PO QD) [%],"IC50 ([3]; human, microsomes, pH 7.4) [µM]","IC50 ([4]; human, microsomes, pH 7.4) [µM]","IC50 ([5]; human, microsomes, pH 7.4) [µM]","IC50 ([6]; human, microsomes, pH 7.4) [µM]","IC50 ([3]; human liver microsomes, 1A2, read-out: IC50) [µM]","IC50 ([4]; human liver microsomes, 2C9, read-out: IC50) [µM]","IC50 ([5]; human liver microsomes, 2D6, read-out: IC50) [µM]","IC50 ([6]; human liver microsomes, 3A4, read-out: IC50) [µM]"
Cn1ncc2c(N)nc3cc(F)c(C(=O)N4CCOC[C@@H]4c4ccc5c(c4)OC(F)(F)O5)cc3c21 [Example I-7],0.0284,84,91,> 10,> 10,> 10,> 10,,,,
Cn1ncc2c(N)nc3cc(F)c(C(=O)N(Cc4ccc5c(c4)OC(F)(F)O5)C4CC4)cc3c21 [Example I-16],0.0346,75,92,,,,,> 10,> 10,> 10,> 10
Cn1ncc2c(N)nc3cnc(C(=O)N4CCOC[C@@H]4c4ccc5c(c4)OC(F)(F)O5)cc3c21 [Example I-38],,,,,,,> 10,,,,
